System: SK-N-MM (SKNMM-MYCN, doxycycline-inducible MYCN)
Experiment: area under dose-response curve (CellTiter-Glo viability normalised to plate controls) (AUC (arbitrary units)); higher = more loss of viability; extreme values may be limits of the assay
Procedure, shortened: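 In 96-well plates, SK-N-MM cells with doxycycline-inducible MYCN (1250 cells/100 μL) were given medium with or without doxycycline about 24 h after plating. Compound dilution series of 10 points at 1:3 were added two days later and again on day 4, and CellTiter-Glo luminescence was recorded 3 or 8 days after drugging. The area under the dose-response curve was derived from log2 signals normalised to the positive and negative controls on each plate.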

[1] = MYCN induction (doxycycline): +doxycycline (MYCN induced), time after drugging: 3 days
[2] = MYCN induction (doxycycline): +doxycycline (MYCN induced), time after drugging: 8 days
[3] = MYCN induction (doxycycline): no doxycycline (MYCN not induced), time after drugging: 3 days
[4] = MYCN induction (doxycycline): no doxycycline (MYCN not induced), time after drugging: 8 days

CCC(C)n1ncn(-c2ccc(N3CCN(c4ccc(OCC5COC(Cn6cncn6)(c6ccc(Cl)cc6Cl)O5)cc4)CC3)cc2)c1=O (stereo unspecified) [ITRACONAZOLE]
area under dose-response curve [1]: 13.1 | area under dose-response curve [2]: 26.1 | area under dose-response curve [3]: 11.4 | area under dose-response curve [4]: 26.1

Cc1nc(-c2cn3c(n2)-c2ccc(-c4cnn(C(C)(C)C(N)=O)c4)cc2OCC3)n(C(C)C)n1 [TASELISIB]
area under dose-response curve [1]: 23.1 | area under dose-response curve [2]: 34.9 | area under dose-response curve [3]: 34.6 | area under dose-response curve [4]: 39

CO[C@@H]1[C@H](N(C)C(=O)c2ccccc2)C[C@H]2O[C@]1(C)n1c3ccccc3c3c4c(c5c6ccccc6n2c5c31)C(=O)NC4 [MIDOSTAURIN]
area under dose-response curve [1]: 59.7 | area under dose-response curve [2]: 122 | area under dose-response curve [3]: 65.6 | area under dose-response curve [4]: 127

Cc1c(CN2CCC(Nc3ncnc4sc(CC(F)(F)F)cc34)CC2)ccc2c1cc(C#N)n2Cc1cn[nH]c1 [MI-503]
area under dose-response curve [1]: 131 | area under dose-response curve [2]: 177 | area under dose-response curve [4]: 169

N[C@H](CCC(=O)N[C@@H](Cc1c[nH]c2ccccc12)C(=O)O)C(=O)O [GOLOTIMOD]
area under dose-response curve [2]: 0 | area under dose-response curve [3]: 0 | area under dose-response curve [4]: 12.7

CC(C)n1nc(-c2ccc3oc(N)nc3c2)c2c(N)ncnc21 [INK-128]
area under dose-response curve [1]: 36.2 | area under dose-response curve [2]: 38.7 | area under dose-response curve [3]: 29.5 | area under dose-response curve [4]: 59.3

CC12CC3CC(C)(C1)CC(N)(C3)C2 [MEMANTINE]
area under dose-response curve [1]: 0 | area under dose-response curve [2]: 0 | area under dose-response curve [3]: 0 | area under dose-response curve [4]: 0

Cn1cnc2c(F)c(Nc3ccc(Br)cc3F)c(C(=O)NOCCO)cc21 [BINIMETINIB]
area under dose-response curve [1]: 0 | area under dose-response curve [2]: 0 | area under dose-response curve [3]: 17.9 | area under dose-response curve [4]: 56.9

Cc1oncc1C(=O)Nc1ccc(C(F)(F)F)cc1 [LEFLUNOMIDE]
area under dose-response curve [1]: 0 | area under dose-response curve [2]: 5.53 | area under dose-response curve [3]: 0 | area under dose-response curve [4]: 16.7

COc1cc2ncnc(Nc3ccc(F)c(Cl)c3)c2cc1OCCCN1CCOCC1 [GEFITINIB]
area under dose-response curve [1]: 80.1 | area under dose-response curve [2]: 0 | area under dose-response curve [3]: 93.7 | area under dose-response curve [4]: 93.8

Cc1nc(Nc2ncc(C(=O)Nc3c(C)cccc3Cl)s2)cc(N2CCN(CCO)CC2)n1 [DASATINIB]
area under dose-response curve [1]: 39.9 | area under dose-response curve [2]: 121 | area under dose-response curve [3]: 40 | area under dose-response curve [4]: 51.4

CS(=O)(=O)CCNCc1ccc(-c2ccc3ncnc(Nc4ccc(OCc5cccc(F)c5)c(Cl)c4)c3c2)o1 [LAPATINIB]
area under dose-response curve [1]: 0 | area under dose-response curve [2]: 0 | area under dose-response curve [3]: 0 | area under dose-response curve [4]: 0

COc1cc(F)ccc1-c1ncnc(Nc2cccc(CS(C)(=N)=O)c2)n1 (stereo unspecified)
area under dose-response curve [1]: 50.3 | area under dose-response curve [2]: 123 | area under dose-response curve [3]: 34 | area under dose-response curve [4]: 131

Cc1cc(Nc2cc(N3CCN(C)CC3)nc(/C=C/c3ccccc3)n2)n[nH]1 [ENMD-2076]
area under dose-response curve [1]: 86 | area under dose-response curve [2]: 133 | area under dose-response curve [3]: 0.719 | area under dose-response curve [4]: 111

O=C(NC[C@H](O)CO)c1ccncc1Nc1ccc(I)cc1F [PIMASERTIB]
area under dose-response curve [1]: 42.1 | area under dose-response curve [2]: 125 | area under dose-response curve [3]: 0 | area under dose-response curve [4]: 105

CCc1ccc(CCOc2ccc(CC3SC(=O)NC3=O)cc2)nc1 (stereo unspecified) [PIOGLITAZONE]
area under dose-response curve [1]: 0 | area under dose-response curve [2]: 0 | area under dose-response curve [3]: 0 | area under dose-response curve [4]: 0

CC(=O)OC[C@H]1O[C@@H]([S-])[C@H](OC(C)=O)[C@@H](OC(C)=O)[C@@H]1OC(C)=O.CCP(CC)CC.[Au+] [AURANOFIN]
area under dose-response curve [1]: 199 | area under dose-response curve [2]: 223 | area under dose-response curve [3]: 188 | area under dose-response curve [4]: 208

C[C@H]1C[C@H]2[C@@H]3CCC4=CC(=O)C=C[C@]4(C)[C@@]3(F)[C@@H](O)C[C@]2(C)[C@@]1(O)C(=O)CO [BETAMETHASONE]
area under dose-response curve [1]: 0 | area under dose-response curve [2]: 0 | area under dose-response curve [3]: 0

Nc1nc(F)nc2c1ncn2[C@@H]1O[C@H](COP(=O)(O)O)[C@@H](O)[C@@H]1O [FLUDARABINE PHOSPHATE]
area under dose-response curve [1]: 0 | area under dose-response curve [2]: 0 | area under dose-response curve [3]: 0 | area under dose-response curve [4]: 57.1

CNC(=O)c1ccc(N2C(=S)N(c3ccc(C#N)c(C(F)(F)F)c3)C(=O)C2(C)C)cc1F [ENZALUTAMIDE]
area under dose-response curve [1]: 0 | area under dose-response curve [2]: 0 | area under dose-response curve [3]: 0 | area under dose-response curve [4]: 0

CC(=O)c1ccc2c(c1)c1cc(C(C)=O)ccc1n2CCNC(C)C [CBL-0137]
area under dose-response curve [1]: 116 | area under dose-response curve [2]: 176 | area under dose-response curve [3]: 94.2 | area under dose-response curve [4]: 172

CCOc1cc(C(C)(C)C)ccc1C1=N[C@@](C)(c2ccc(Cl)cc2)[C@@](C)(c2ccc(Cl)cc2)N1C(=O)N1CCN(CCCS(C)(=O)=O)CC1 [RG7112]
area under dose-response curve [1]: 0 | area under dose-response curve [2]: 0 | area under dose-response curve [3]: 0 | area under dose-response curve [4]: 0

CCCS(=O)(=O)Nc1ccc(F)c(C(=O)c2c[nH]c3ncc(-c4ccc(Cl)cc4)cc23)c1F [VEMURAFENIB]
area under dose-response curve [1]: 18.3 | area under dose-response curve [2]: 24.6 | area under dose-response curve [3]: 15.8 | area under dose-response curve [4]: 0

Cc1cc(Nc2ccc(NC(=O)c3ccc(Nc4ccnc5ccccc45)cc3)cc2)nc(N)n1 [SGI-1027]
area under dose-response curve [1]: 80.5 | area under dose-response curve [2]: 201 | area under dose-response curve [3]: 26.5 | area under dose-response curve [4]: 105

CCN(CCCOc1ccc2c(Nc3cc(CC(=O)Nc4cccc(F)c4)[nH]n3)ncnc2c1)CCOP(=O)(O)O [BARASERTIB]
area under dose-response curve [1]: 19.5 | area under dose-response curve [2]: 92.2 | area under dose-response curve [4]: 33.5

C[C@H]1[C@@H](O)O[C@@H]2O[C@@]3(C)CC[C@H]4[C@H](C)CC[C@@H]1[C@@]24OO3 [DIHYDROARTEMISININ]
area under dose-response curve [1]: 62.1 | area under dose-response curve [2]: 116 | area under dose-response curve [3]: 37 | area under dose-response curve [4]: 73.1

CON(C)C(=O)N1N=C(c2cc(F)ccc2F)S[C@@]1(CCCN)c1ccccc1 [ARRY-520]
area under dose-response curve [1]: 218 | area under dose-response curve [2]: 288 | area under dose-response curve [3]: 108 | area under dose-response curve [4]: 154

O=C(/C=C\n1cnc(-c2cc(C(F)(F)F)cc(C(F)(F)F)c2)n1)NNc1cnccn1 [SELINEXOR]
area under dose-response curve [1]: 98.9 | area under dose-response curve [2]: 189 | area under dose-response curve [3]: 43.6 | area under dose-response curve [4]: 128

COC(=O)N[C@@H](C)CNc1nccc(-c2cn(C(C)C)nc2-c2cc(Cl)cc(NS(C)(=O)=O)c2F)n1 [LGX-818]
area under dose-response curve [1]: 12.9 | area under dose-response curve [2]: 2.41 | area under dose-response curve [3]: 11 | area under dose-response curve [4]: 68.6

Cc1ncc(CNC(=O)N(CCCl)N=O)c(N)n1 [NIMUSTINE]
area under dose-response curve [1]: 0 | area under dose-response curve [2]: 0 | area under dose-response curve [3]: 0 | area under dose-response curve [4]: 0

CC(C)NC[C@@H](C(=O)N1CCN(c2ncnc3c2[C@H](C)C[C@H]3O)CC1)c1ccc(Cl)cc1 [IPATASERTIB]
area under dose-response curve [1]: 0 | area under dose-response curve [2]: 0 | area under dose-response curve [3]: 10.4 | area under dose-response curve [4]: 0.0606

CN(C)CCCNc1c2ccccc2nc2c1[nH]c1ccccc12 [SYUIQ-5]
area under dose-response curve [1]: 219 | area under dose-response curve [2]: 262 | area under dose-response curve [3]: 196 | area under dose-response curve [4]: 225

C#Cc1cccc(Nc2ncnc3cc(OCCOC)c(OCCOC)cc23)c1 [ERLOTINIB]
area under dose-response curve [2]: 1.15 | area under dose-response curve [3]: 18.8

Source: the supplement of paper PMC7021759
